Tests used:
[1] = Pharmacokinetics assay in rats, oral administration; format: in vivo; conditions: rat; male SD rats, oral 5 mg/kg, plasma
Experimental: SD rats were used as test animals.
5 g of hydroxyethyl cellulose (HEC, CMC-Na, viscosity: 800-1200 Cps) was dissolved in 1000 mL of purified water, and 10 g of Tween80 was added. The solution was mixed well to form a clear solution.
The solution was shaked well and subjected to ultrasound for 15 minutes to obtain a colorless and clear solution with a concentration of 0.5 mg/mL.
After an overnight fast, male SD rats (3 rats per group) were administrated orally with the test compounds at an administration dose of 5 mg/kg and an administration volume of 10 mL/kg.
0.2 mL of blood was taken from jugular vein before administration and at 0.5 hour, 1.0 hour, 2.0 hours, 4.0 hours, 6.0 hours, 8.0 hours and 24.0 hours after administration. The blood samples were stored in EDTA-2K tubes, and centrifuged for 6 minutes at 6000 rpm, at 4° C. to separate the blood plasma. The plasma samples were stored at −80° C. The rats were fed four hours after administration.

[2] = biological target: T1, SHP-2 full-length protein (Homo sapiens, UniProt Q06124); assay: Inhibition of SHP-2 kinase activity (Homogeneous Full Length SHP-2 Assay Kit); format: biochemical; conditions: relative IC50, full-length SHP-2 with activating peptide
T1 construct: purchased BPS Bioscience 79330
T1 sequence (Q06124 1-593): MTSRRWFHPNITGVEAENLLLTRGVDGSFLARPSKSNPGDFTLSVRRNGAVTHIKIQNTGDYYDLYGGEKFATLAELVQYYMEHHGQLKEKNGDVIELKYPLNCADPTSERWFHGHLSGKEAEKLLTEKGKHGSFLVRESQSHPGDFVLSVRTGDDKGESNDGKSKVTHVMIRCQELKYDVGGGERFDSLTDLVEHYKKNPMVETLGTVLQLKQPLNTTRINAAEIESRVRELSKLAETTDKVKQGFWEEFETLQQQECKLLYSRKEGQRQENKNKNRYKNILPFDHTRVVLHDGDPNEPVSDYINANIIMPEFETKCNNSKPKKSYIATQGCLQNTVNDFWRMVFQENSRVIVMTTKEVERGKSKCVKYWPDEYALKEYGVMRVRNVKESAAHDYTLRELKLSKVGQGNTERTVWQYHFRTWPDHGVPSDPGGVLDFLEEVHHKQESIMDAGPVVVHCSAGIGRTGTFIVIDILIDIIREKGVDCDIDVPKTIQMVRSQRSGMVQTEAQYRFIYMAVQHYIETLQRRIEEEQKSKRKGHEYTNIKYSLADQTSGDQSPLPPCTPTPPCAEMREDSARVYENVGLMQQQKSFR
Experimental: The objective of this test is to determine the inhibitory effect of the compounds on SHP-2 full-length protein allosteric activity.
Experimental method: Homogeneous Full Length SHP-2 Assay Kit (BPS Bioscience, #79330) was used to determine the in vitro SHP-2 activity. First, 18 μL of Master Mix was added to a 96-well low adsorption microplate (NUNC, #267342), i.e., the reaction buffer with a final concentration of 1× comprised 0.5 μM SHP-2 activating Peptide and 5 mM DTT. After centrifugation, 5 μL of test compound/DMSO was added to each well (the final DMSO content was 1%, V/V, the test compound was dissolved in DMSO to 1 mM, a three-fold serial dilution was carried out to obtain ten concentrations, the final concentration of the reaction system ranged from 1 μM to 0.05 nM). SHP-2 was diluted in the 1× reaction buffer to a final concentration of 0.06 nM, and the resulting solution was added to the reaction microplate (2 μL per well). Full activity control (compound only with DMSO) and full inhibition control (no SHP-2) were set up on the reaction plate. After centrifugation, the reaction mixture was incubated at room temperature for 60 minutes.
After completion of the incubation, 25 μL of Substrate solution, which comprised Substrate with a final concentration of 10 μM and 5 mM DTT, was added to each well. After centrifugation, the reaction mixture was incubated at room temperature for 30 minutes. After completion of the reaction, readings were measured on the Synergy H1 full-function microplate reader (BioTek) (excitation wavelength: 340 nm, emission wavelength: […], gain value: 75).
The IC50 value of the test compounds was calculated by fitting the percentage inhibition rate and data of ten concentrations to a four-parameter nonlinear logic formula with GraphPad prism.

[3] = biological target: T2, hERG potassium channel (Homo sapiens, UniProt Q12809); assay: Inhibitory activity on hERG potassium channel (Qpatch, CHO-hERG cells); format: cell-based; conditions: six concentrations up to 40 μM, read-out: hERG (inhibitory effect on hERG current)
T2 construct: expressed in transfected cells; host or cells: CHO-hERG cells
Experimental: 8.1.1 CHO-hERG cells were cultured in a 175 cm^2 culture flask. When the cells were grown to a density of 60 to 80%, the culture solution was removed, and the cells were washed once with 7 mL of PBS, and then 3 mL of Detachin was added for digestion of the cells.
8.1.2 After the digestion was complete, the cells were neutralized by adding 7 mL of the culture solution and then centrifuged. The supernatant was removed, and then 5 mL of the culture solution was added for resuspension to ensure a cell density of 2-5×10^6 cells/mL.
The single-cell high-impedance sealing and whole-cell pattern formation processes were both completed automatically by the Qpatch instrument. After the whole-cell recording pattern was obtained, the cells were clamped at −80 millivolts. A pre-voltage of −50 millivolts was applied for 50 milliseconds prior to the application of a depolarizing stimulus of +40 millivolts for 5 seconds, and then the cells were repolarized to −50 millivolts and maintained for 5 seconds, and then returned back to −80 millivolts. This voltage stimulation was applied every 15 seconds, and data were recorded for 2 minutes, and thereafter the extracellular fluid was administered and data were recorded for 5 minutes, and then the administration process was started. The compound was administered from the lowest test concentration, and 2.5 minutes were given for each test concentration. After all the concentrations of the compound were administered, […] Cisapride as a positive control compound was administered. At least three cells (n≥3) were tested for each concentration.
8.4.1 20 mM compound mother solution was diluted with the extracellular fluid. 5 μL of the 20 mM compound mother solution was diluted 500 times to 40 μM by adding 2495 μL of the extracellular fluid, and then 3-fold serial dilutions were performed sequentially in the extracellular fluid containing 0.2% DMSO to obtain a final concentration to be tested.
8.4.2 The highest test concentration was 40 μM, and there were six concentrations in total, i.e., 40, 13.33, 4.44, 1.48, 0.49, and […], respectively.
The experimental data were analyzed by XLFit software.

T2 sequence (Q12809 whole entry): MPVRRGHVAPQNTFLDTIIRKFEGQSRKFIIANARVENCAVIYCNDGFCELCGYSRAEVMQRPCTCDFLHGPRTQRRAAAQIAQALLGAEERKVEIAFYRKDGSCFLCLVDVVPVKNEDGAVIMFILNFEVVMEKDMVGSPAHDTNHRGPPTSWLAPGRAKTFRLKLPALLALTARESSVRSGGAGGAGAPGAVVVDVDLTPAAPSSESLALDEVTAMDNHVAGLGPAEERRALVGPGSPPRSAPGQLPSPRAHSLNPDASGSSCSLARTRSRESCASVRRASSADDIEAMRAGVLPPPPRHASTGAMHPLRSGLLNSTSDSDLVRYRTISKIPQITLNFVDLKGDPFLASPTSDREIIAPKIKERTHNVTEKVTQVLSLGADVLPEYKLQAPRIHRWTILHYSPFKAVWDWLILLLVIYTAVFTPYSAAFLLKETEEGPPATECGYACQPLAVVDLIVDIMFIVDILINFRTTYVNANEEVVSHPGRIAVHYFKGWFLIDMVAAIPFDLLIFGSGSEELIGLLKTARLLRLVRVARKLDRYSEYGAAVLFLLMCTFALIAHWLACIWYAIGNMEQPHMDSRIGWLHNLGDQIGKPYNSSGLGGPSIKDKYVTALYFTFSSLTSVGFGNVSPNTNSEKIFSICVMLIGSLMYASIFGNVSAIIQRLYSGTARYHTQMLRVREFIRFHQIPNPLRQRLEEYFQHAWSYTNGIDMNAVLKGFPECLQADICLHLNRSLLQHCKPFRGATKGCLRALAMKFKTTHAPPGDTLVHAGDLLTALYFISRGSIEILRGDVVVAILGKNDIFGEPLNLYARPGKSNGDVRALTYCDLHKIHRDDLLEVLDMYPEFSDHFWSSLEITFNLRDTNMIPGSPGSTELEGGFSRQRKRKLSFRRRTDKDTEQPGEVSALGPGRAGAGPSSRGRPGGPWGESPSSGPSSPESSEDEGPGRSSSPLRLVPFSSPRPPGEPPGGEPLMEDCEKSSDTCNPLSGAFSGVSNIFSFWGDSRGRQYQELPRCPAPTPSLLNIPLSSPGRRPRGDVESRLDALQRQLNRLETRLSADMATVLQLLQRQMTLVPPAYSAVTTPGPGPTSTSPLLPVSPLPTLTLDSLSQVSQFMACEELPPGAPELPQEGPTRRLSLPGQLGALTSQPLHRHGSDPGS

SMILES	AUC(0-inf) [1]	Cmax [1]	MRT [1]	Tmax [1]	half-life [1]	IC50 [2]	IC50 [3]
Nc1nccc(Sc2cnc(N3CCC4(CC=C(C5CC5)[C@H]4N)CC3)cn2)c1Cl [Example 144, (S)-8-(5-((2-amino-3-chloropyridin-4-yl)thio)pyrazin-2-yl)-2-cyclopropyl-8-azaspiro[4.5]dec-2-en-1-amine]	3310 ng·h/mL	247 ng/mL	9.24 h	1 h	6.49 h	1.48 nM	2340 nM
Cc1nc(N2CCC3(CC2)Cc2ncsc2[C@H]3N)c(CO)nc1Sc1ccnc(N)c1Cl [Example 171, (S)-(6-((2-amino-3-chloropyridin-4-yl)thio)-3-(6-amino-4,6-dihydrospiro[cyclopenta[d]thiazole-5,4′-piperidin]-1′-yl)-5-methylpyrazin-2-yl)methanol]	1780 ng·h/mL	189 ng/mL	5.78 h	1 h	3.69 h	1.73 nM	18800 nM
Nc1nc(N2CCC3(CC2)Cc2ccccc2[C@H]3N)c(F)nc1Sc1ccnc(N)c1Cl [Example 179, (S)-1′-(6-amino-5-((2-amino-3-chloropyridin-4-yl)thio)-3-fluoropyrazin-2-yl)-1,3-dihydrospiro[indene-2,4′-piperidin]-1-amine]	3840 ng·h/mL	201 ng/mL	15.2 h	2 h	10.5 h	1.75 nM	4510 nM
Nc1nc(N2CCC3(CC2)Cc2ncsc2[C@H]3N)c(F)nc1Sc1ccnc(N)c1Cl [Example 181, (S)-1′-(6-amino-5-((2-amino-3-chloropyridin-4-yl)thio)-3-fluoropyrazin-2-yl)-4,6-dihydrospiro[cyclopenta[d]thiazole-5,4′-piperidin]-6-amine]	5890 ng·h/mL	614 ng/mL	5.84 h	2 h	3.55 h	3.07 nM	21900 nM

Reference: US20210355105A1, “REGULATOR OF NITROGEN-CONTAINING HETEROAROMATIC DERIVATIVES, PREPARATION METHOD THEREFOR AND USE THEREOF” (Jiangsu Hansoh Pharmaceutical Group Co., Ltd., priority 2018, published 2021)
